The values below are quoted from earlier work in publication PMC5733301, “Antitubercular Nitroimidazoles Revisited: Synthesis and Activity of the Authentic 3-Nitro Isomer of Pretomanid” (ACS Medicinal Chemistry Letters, 2017).

The subject of data set [1] is M. tb having mutations in the nitroreductase Ddn. On the set-up: method as in PMID 19209889. The following applies: ref [22]; cited from earlier work.
The test system is the same in data set [2]. The arrangement: method as in PMID 19209889. The following applies: ref [22]; cited from earlier work. The source holds these as a separate data set.

Consider `O=[N+]([O-])c1cn2c(n1)O[C@H](COCc1ccc(OC(F)(F)F)cc1)C2` [compound 20], for which the “anaerobic MIC90 against Ddn mutant M. tb” value in data set [1] is 62.5 to 125 µM. Also, in data set [2], the “aerobic MIC99 against Ddn mutant M. tb” value is above 100 µM.
